Laboratory results as given in US4041111A, “Phosphonate monoesters and method of preparation” (Purdue Research Foundation, priority 1975, dated 1977).

Key:
[1] = Stability and water solubility of phosphonate monoesters
[2] = test system: Type I phosphodiesterase, Snake Venon; test: Activity of Type I phosphodiesterase, snake venom (Table VII); format: biochemical; settings: 1 mM 4-nitrophenyl ester of the named compound
Protocol: (§1) Enzymic hydrolysis of 4-nitrophenyl esters is quantitated spectrophotometrically by the appearance of the 4-nitrophenolate ion at 400 nm (ε=18,320 M^-^1 cm^-1, pK 7.15) (see Kezdy, F. J. and Bender, M. L., 1962, Biochemistry, Volume 1, page 1097), either continuously above pH 7.0 or discontinuously by raising the assay mixture to pH 9 and inactivating the enzyme by the addition of two volumes of 1 M NaHCO3, 10 mM Na3 PO4, 10 mM Na2 EDTA. Standard assay conditions are 1 mM 4-nitrophenyl phenylphosphonate, 0.1 M Tris, pH 8.0, 30° C.
(§2) Table VII is a comparison of Type I and Type II Phosphodiesterase as follows:
(§3) Substrates were 1 mM solutions of the 4-nitrophenyl esters of the above

[3] = molecular target: T1, purified bovine intestinal phosphodiesterase (Bos taurus, UniProt P15396); test: Kinetic parameters of hydrolysis by purified phosphonate monoesterase/phosphodiesterase of calf intestinal mucosa (Table VI); format: biochemical, bovine (calf); settings: 0.1 M Tris pH 8.0, 30° C., 4-nitrophenol measured continuously at 400 nm
T1 sequence (P15396 1-874): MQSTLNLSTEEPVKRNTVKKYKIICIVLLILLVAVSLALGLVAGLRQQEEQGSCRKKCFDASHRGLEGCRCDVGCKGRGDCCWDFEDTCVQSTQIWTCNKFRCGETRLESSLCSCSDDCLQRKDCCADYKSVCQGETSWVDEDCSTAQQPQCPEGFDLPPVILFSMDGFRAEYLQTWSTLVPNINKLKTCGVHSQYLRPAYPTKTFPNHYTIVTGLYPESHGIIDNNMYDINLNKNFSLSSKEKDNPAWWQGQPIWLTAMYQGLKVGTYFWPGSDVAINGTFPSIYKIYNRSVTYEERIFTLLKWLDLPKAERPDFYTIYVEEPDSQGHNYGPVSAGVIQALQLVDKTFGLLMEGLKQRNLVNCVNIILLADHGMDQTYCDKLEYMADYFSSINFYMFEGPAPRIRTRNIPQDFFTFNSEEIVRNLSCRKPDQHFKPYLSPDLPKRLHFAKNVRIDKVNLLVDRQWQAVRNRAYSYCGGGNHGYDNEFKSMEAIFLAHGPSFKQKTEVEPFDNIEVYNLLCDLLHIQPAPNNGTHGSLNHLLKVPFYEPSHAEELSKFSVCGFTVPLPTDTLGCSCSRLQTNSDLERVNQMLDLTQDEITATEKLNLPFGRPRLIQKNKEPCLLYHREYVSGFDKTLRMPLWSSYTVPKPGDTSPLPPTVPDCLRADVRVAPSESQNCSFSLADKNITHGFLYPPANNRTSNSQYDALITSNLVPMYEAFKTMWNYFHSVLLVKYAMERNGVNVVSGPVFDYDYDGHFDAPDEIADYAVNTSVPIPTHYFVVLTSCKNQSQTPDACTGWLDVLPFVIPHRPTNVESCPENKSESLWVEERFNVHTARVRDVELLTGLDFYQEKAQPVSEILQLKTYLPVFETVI
Protocol: as §1
^a Production of 4-nitrophenol was measured continuously at 400 nm in […]

[4] = test system: Type II phosphodiesterase, Bovine spleen; test: Activity of Type II phosphodiesterase, bovine spleen (Table VII); format: biochemical; settings: 1 mM 4-nitrophenyl ester of the named compound
Protocol: as §1, §2, §3

[5] = molecular target: T2, Type I phosphodiesterase, Bovine Intestine (Bos taurus, UniProt P15396); test: Activity of Type I phosphodiesterase, bovine intestine (Table VII); format: biochemical; settings: 1 mM 4-nitrophenyl ester of the named compound
T2 construct: from tissue; host or cells: bovine intestine
T2 sequence (P15396 1-874): T1 sequence (P15396 1-874)
Protocol: as §1, §2, §3

SMILES | stability of solutions of the ammonium salt ([1]; concentrations to 0.1 M, 0°-4° C.) | stability as the dry ammonium salt ([1]; dry ammonium salt) | stability in solution compared with 4-nitrophenyl phosphate ([1]; in solution) | Activity [2] [nmoles min^-^1 mg^-^1] | Vmax [3] [μmoles min^-^1 mg^-^1] | Activity [4] [nmoles min^-^1 mg^-^1] | Activity [5]
O=[N+]([O-])c1ccc(OP(=O)(O)c2ccccc2)cc1 [4-nitrophenyl phenylphosphonate] | stable in concentrations to 0.1 M for several weeks at 0°-4 °C | stable indefinitely as the dry ammonium salt | much more stable in solution than is 4-nitrophenyl phosphate | – | – | – | –
Cc1cn([C@H]2C[C@H](OP(=O)(O)Oc3ccc([N+](=O)[O-])cc3)[C@@H](CO)O2)c(=O)[nH]c1=O [4-nitrophenyl 3'-TMP] | – | – | – | 1.9 | 1 | 168 | 569 nmoles min^-^1 mg^-^1
Cc1cn([C@H]2C[C@H](O)[C@@H](COP(=O)(O)Oc3ccc([N+](=O)[O-])cc3)O2)c(=O)[nH]c1=O [4-nitrophenyl 5'-TMP] | – | – | – | 4570 | – | 6.9 | 65,700 nmoles min^-^1 mg^-^1
